Columns and labels:
Type in all cases: biochemical
[1] = biological target: JAK1 (Homo sapiens (Human), UniProt P23458); assay: JAK enzymatic assay (peptide mobility shift), JAK1; settings: recombinant JAK1 20 nM, IRS-1 peptide, 240 minutes
Procedure: (§1) Recombinant JAK1 (Catalog Number PV4775), JAK2 (Catalog Number PV4210) and JAK3 (Catalog Number PV3855) were purchased from (Invitrogen Corporation, Madison, Wis.). […] Adenosine 5′-triphosphate (ATP) was obtained from (Sigma Chemical Company, St. Louis, Mo.). […] Coating Reagent 3 was purchased from (Caliper Life Sciences, Hopkinton, Mass.).
(§2) Compounds were diluted serially in 100% dimethyl sulfoxide and tested in an 11 point dose response in duplicate or quadruplicate (200 nl of compound/DMSO was added per 10 L reaction). […] The assay was run for 240 minutes for JAK1, 150 minutes for JAK2, 90 minutes for JAK3 and 70 minutes for Tyk2. […] The plates were placed on a LabChip 3000 (LC3000) instrument from (Caliper Life Sciences) to measure the formation of phosphorylated peptide. Data was analyzed using Hits Well Analyzer Software from (Caliper Life Sciences) to obtain the amount of product formed.
(§3) Data was then imported into an internal application where each data point is expressed as % inhibition based on uninhibited and no enzyme controls. Dose-response data is then fit using a 4 parameter logistic equation (Equation 1) to determine an IC50.

[2] = biological target: JAK3 (Homo sapiens (Human), UniProt P52333); assay: JAK enzymatic assay (peptide mobility shift), JAK3; settings: recombinant JAK3 1 nM, JAKtide peptide, 90 minutes
JAK3, sequence (P52333 781-1124): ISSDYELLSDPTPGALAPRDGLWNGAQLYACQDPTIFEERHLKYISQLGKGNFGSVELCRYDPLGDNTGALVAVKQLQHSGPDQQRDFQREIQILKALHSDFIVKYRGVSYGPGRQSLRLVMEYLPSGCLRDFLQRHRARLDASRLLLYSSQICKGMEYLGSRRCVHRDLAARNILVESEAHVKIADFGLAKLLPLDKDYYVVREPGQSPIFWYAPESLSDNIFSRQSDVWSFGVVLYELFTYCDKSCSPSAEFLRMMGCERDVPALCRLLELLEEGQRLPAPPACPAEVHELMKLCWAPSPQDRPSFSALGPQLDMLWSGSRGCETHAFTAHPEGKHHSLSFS
Procedure: as §1, §2, §3

[3] = biological target: JAK2 (Homo sapiens (Human), UniProt O60674); assay: JAK enzymatic assay (peptide mobility shift), JAK2; settings: recombinant JAK2 2 nM, JAKtide peptide, 150 minutes
JAK2, sequence (O60674 808-1132): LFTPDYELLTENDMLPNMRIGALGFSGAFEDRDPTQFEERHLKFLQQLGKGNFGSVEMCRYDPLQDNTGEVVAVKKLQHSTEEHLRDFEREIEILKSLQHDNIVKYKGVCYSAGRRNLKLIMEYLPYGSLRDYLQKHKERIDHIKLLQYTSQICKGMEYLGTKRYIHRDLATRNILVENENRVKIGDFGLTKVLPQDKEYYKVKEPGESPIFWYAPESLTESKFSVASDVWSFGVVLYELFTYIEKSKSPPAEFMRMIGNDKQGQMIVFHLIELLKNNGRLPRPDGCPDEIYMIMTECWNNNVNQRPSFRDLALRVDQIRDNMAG
Text: Recombinant JAK1 (Catalog Number PV4775), JAK2 (Catalog Number PV4210) and JAK3 (Catalog Number PV3855) were purchased from (Invitrogen Corporation, Madison, Wis.). Tyk2 (His-Tyk2 (888-1182, C936S, C1142S)) used in this study was expressed and purified at Pfizer Laboratories. Adenosine 5′-triphosphate (ATP) was obtained from (Sigma Chemical Company, St. Louis, Mo.). […] Coating Reagent 3 was purchased from (Caliper Life Sciences, Hopkinton, Mass.).
A peptide mobility shift assay was used to quantify the phosphorylation of the JAKtide (JAK2 and JAK3) or the IRS-1 peptide (JAK1 and Tyk2). Reactions were carried out in a 384-well plate (Matrical MP-101) in a 10 L total volume. […] Compounds were diluted serially in 100% dimethyl sulfoxide and tested in an 11 point dose response in duplicate or quadruplicate (200 nl of compound/DMSO was added per 10 L reaction). The reactions were initiated by the addition of enzyme to the final concentration of 2 nM JAK2, 1 nM JAK3, 12 nM Tyk2 or 20 nM JAK1. The assay was run for 240 minutes for JAK1, 150 minutes for JAK2, 90 minutes for JAK3 and 70 minutes for Tyk2. The assays were stopped at the specified times with 20 uL of 140 mM HEPES, 22.5 mM EDTA and 0.15% Coating Reagent 3. The plates were placed on a LabChip 3000 (LC3000) instrument from (Caliper Life Sciences) to measure the formation of phosphorylated peptide. Data was analyzed using Hits Well Analyzer Software from (Caliper Life Sciences) to obtain the amount of product formed.
as §3

JAK1, sequence (P23458 whole entry): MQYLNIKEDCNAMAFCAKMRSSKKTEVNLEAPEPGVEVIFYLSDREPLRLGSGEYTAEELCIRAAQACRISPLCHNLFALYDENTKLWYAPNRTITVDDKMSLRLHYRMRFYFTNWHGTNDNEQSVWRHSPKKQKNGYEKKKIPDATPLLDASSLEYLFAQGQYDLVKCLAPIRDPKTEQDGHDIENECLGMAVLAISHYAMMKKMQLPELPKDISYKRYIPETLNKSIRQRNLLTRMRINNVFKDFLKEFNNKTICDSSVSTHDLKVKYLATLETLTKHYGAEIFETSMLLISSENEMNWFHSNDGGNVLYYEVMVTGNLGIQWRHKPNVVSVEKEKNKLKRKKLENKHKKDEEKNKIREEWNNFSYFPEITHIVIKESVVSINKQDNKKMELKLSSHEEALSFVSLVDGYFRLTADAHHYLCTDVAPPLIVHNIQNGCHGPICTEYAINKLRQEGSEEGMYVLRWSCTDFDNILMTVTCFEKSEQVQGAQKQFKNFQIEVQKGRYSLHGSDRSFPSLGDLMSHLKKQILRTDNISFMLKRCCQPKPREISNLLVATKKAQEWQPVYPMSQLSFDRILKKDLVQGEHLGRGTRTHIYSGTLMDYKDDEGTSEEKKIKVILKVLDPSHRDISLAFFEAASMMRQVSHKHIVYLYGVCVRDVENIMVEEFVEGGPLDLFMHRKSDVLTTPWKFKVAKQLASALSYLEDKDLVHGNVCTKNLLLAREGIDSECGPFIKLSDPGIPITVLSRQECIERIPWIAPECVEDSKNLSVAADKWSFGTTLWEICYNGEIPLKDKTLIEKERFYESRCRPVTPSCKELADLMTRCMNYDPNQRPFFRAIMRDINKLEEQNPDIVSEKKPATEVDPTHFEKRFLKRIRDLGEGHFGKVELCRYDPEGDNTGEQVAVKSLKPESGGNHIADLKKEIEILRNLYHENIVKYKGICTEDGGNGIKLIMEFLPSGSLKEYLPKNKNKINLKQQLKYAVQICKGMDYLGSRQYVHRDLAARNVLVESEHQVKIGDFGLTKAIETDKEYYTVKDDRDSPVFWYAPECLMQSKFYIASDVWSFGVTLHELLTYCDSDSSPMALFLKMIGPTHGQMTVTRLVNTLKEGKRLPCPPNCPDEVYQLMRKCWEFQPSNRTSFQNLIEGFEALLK

Compound | IC50 [1] [nM] | IC50 [2] [nM] | IC50 [3] [nM]
Cc1nnc(C2CCCN(S(=O)(=O)C[C@H]3CC[C@H](N(C)c4ncnc5[nH]ccc45)CC3)C2)o1 (stereo partly drawn) [Example 18, N-methyl-N-[trans-4-({[3-(5-methyl-1,3,4-oxadiazol-2-yl)piperidin-1-yl]sulfonyl}methyl)-cyclohexyl]-7H-pyrrolo-[2,3-d]pyrimidin-4-amine] | 9.75 | 210 | 19.5
CN(c1ncnc2[nH]ccc12)[C@H]1CC[C@H](CS(=O)(=O)N2CC[C@H](NC(=O)C(F)(F)F)C2)CC1 [Example 75, 2,2,2-trifluoro-N-{(3S)-1-[({trans-4-[methyl(7H-pyrrolo[2,3-d]pyrimidin-4-yl)amino]cyclohexyl}methyl)-sulfonyl]pyrrolidin-3-yl}acetamide] | 19.1 | 399 | 62.2
CN(c1ncnc2[nH]ccc12)[C@H]1CC[C@H](CS(=O)(=O)N2CCN(c3ccccn3)CC2)CC1 [Example 120, N-methyl-N-(trans-4-{[(4-pyridin-2-ylpiperazin-1-yl)sulfonyl]methyl}cyclo-hexyl)-7H-pyrrolo[2,3-d]-pyrimidin-4-amine] | 8.43 | 208 | 22.3
CN(c1ncnc2[nH]ccc12)[C@H]1CC[C@H](CS(=O)(=O)N2CCCC(F)C2)CC1 (stereo partly drawn) [Example 10, N-(trans-4-{[(3-fluoro-piperidin-1-yl)sulfonyl]-methyl}cyclohexyl)-N-methyl-7H-pyrrolo[2,3-d]-pyrimidin-4-amine] | 5.3 | 234 | 26.2
COC(=O)NC1CN(S(=O)(=O)C[C@H]2CC[C@H](N(C)c3ncnc4[nH]ccc34)CC2)C1 [Example 117, methyl {1-[({trans-4-[methyl(7H-pyrrolo[2,3-d]pyrimidin-4-yl)amino]-cyclohexyl}methyl)sulfonyl]azetidin-3-yl}carbamate] | 11 | 382 | 32.4
CCOCCO[C@@H]1CCN(S(=O)(=O)C[C@H]2CC[C@H](N(C)c3ncnc4[nH]ccc34)CC2)C1 [Example 28, N-[trans-4-({[(3R)-3-(2-ethoxyethoxy)pyrrolidin-1-yl]sulfonyl}methyl)-cyclohexyl]-N-methyl-7H-pyrrolo[2,3-d]pyrimidin-4-amine] | 6.31 | – | 16.8
CN(c1ncnc2[nH]ccc12)[C@H]1CC[C@H](CS(=O)(=O)N2CCCC(CN3CCCC3)C2)CC1 (stereo partly drawn) [Example 8, N-methyl-N-[trans-4-({[3-(pyrrolidin-1-ylmethyl)-piperidin-1-yl]sulfonyl}-methyl)cyclohexyl]-7H-pyrrolo[2,3-d]pyrimidin-4-amine] | 14.8 | 3280 | –
CN(c1ncnc2[nH]ccc12)[C@H]1CC[C@H](CS(=O)(=O)N2CC(c3cccnc3)C2)CC1 [Example 111, N-methyl-N-(trans-4-{[(3-pyridin-3-ylazetidin-1-yl)sulfonyl]methyl}cyclo-hexyl)-7H-pyrrolo[2,3-d]pyrimidin-4-amine] | 22.7 | 346 | –
CN(c1ncnc2[nH]ccc12)[C@H]1CC[C@H](CS(=O)(=O)N2CCC[C@H](C(N)=O)C2)CC1 [Example 59, 1-[({trans-4-[methyl(7H-pyrrolo[2,3-d]pyrimidin-4-yl)amino]cyclohexyl}methyl)-sulfonyl]piperidine-3-carboxamide] | 6.45 | 222 | –
CN(c1ncnc2[nH]ccc12)[C@H]1CC[C@H](CS(=O)(=O)N2CCC[C@H]2CN2CCCC2)CC1 [Example 108, N-methyl-N-[trans-4-({[(2S)-2-(pyrrolidin-1-ylmethyl)pyrrolidin-1-yl]sulfonyl}methyl)cyclo-hexyl]-7H-pyrrolo[2,3-d]pyrimidin-4-amine] | 4.73 | 813 | –

Further lines, results first:

IC50 [1] [nM] | IC50 [2] [nM] | IC50 [3] [nM] | Compound
5.98 | 167 | 17.7 | CN(c1ncnc2[nH]ccc12)[C@H]1CC[C@H](CS(=O)(=O)N2CCC(Cc3ncccn3)CC2)CC1 [Example 46, N-methyl-N-[trans-4-({[4-(pyrimidin-2-ylmethyl)-piperidin-1-yl]sulfonyl}-methyl)cyclohexyl]-7H-pyrrolo[2,3-d]pyrimidin-4-amine]
12.5 | 143 | – | CN(c1ncnc2[nH]ccc12)[C@H]1CC[C@H](CS(=O)(=O)N2CC(F)C2)CC1 [Example 112, N-(trans-4-{[(3-fluoroazetidin-1-yl)-sulfonyl]-methyl}-cyclohexyl)-N-methyl-7H-pyrrolo[2,3 d]pyrimidin-4-amine]
0.00777 | 0.302 | – | CN(c1ncnc2[nH]ccc12)[C@H]1CC[C@H](CS(=O)(=O)N2CCC(C)(O)C2)CC1 (stereo partly drawn) [Example 137, 3-methyl-1-[({trans-4-[methyl(7H-pyrrolo[2,3-d]pyrimidin-4-yl)amino]cyclohexyl}methyl)sulfonyl]pyrrolidin-3-ol]
8.34 | 322 | – | CN(c1ncnc2[nH]ccc12)[C@H]1CC[C@H](CS(=O)(=O)N2CC[C@](C)(O)C2)CC1 [Example 99, 3-methyl-1-[({trans-4-[methyl(7H-pyrrolo[2,3-d]pyrimidin-4-yl)amino]cyclohexyl}methyl)-sulfonyl]pyrrolidin-3-ol]
0.00508 | 0.0421 | – | CC1CC(CS(=O)(=O)N2CC[C@H](CO)C2)CCC1N(C)c1ncnc2[nH]ccc12 (stereo partly drawn) [Example 133, ((3S)-1-((3-methyl-4-(methyl(7H-pyrrolo[2,3-d]pyrimidin-4-yl)amino)cyclohexyl)methylsulfonyl)pyrrolidin-3-yl)methanol]
42.3 | 2270 | – | CN(c1ncnc2[nH]ccc12)[C@H]1CC[C@H](CS(=O)(=O)N2CCC(N)CC2)CC1 [Example 11, N-(trans-4-{[(4-amino-piperidin-1-yl)sulfonyl]-methyl}cyclohexyl)-N-methyl-7H-pyrrolo[2,3-d]-pyrimidin-4-amine]
7.41 | 42.9 | – | C[C@@H]1C[C@@H](CS(=O)(=O)N2CCC(CO)CC2)CC[C@@H]1N(C)c1ncnc2[nH]ccc12 [Example 130, {1-[({(1S,3R,4S)-3-methyl-4-[methyl(7H-pyrrolo[2,3-d]pyrimidin-4-yl)amino]cyclohexyl}-methyl)sulfonyl]piperidin-4-yl}methanol]
6.5 | 51.2 | – | C[C@@H]1C[C@@H](CS(=O)(=O)N2CC[C@@H](CO)C2)CC[C@@H]1N(C)c1ncnc2[nH]ccc12 [Example 132, {(3R)-1-[({(1S,3R,4S)-3-methyl-4-[methyl(7H-pyrrolo[2,3-d]pyrimidin-4-yl)amino]cyclohexyl}methyl)-sulfonyl]pyrrolidin-3-yl}methanol]
22.8 | 673 | – | CC[C@H](O)C1CCN(S(=O)(=O)C[C@H]2CC[C@H](N(C)c3ncnc4[nH]ccc34)CC2)CC1 [Example 53, 1-{1-[({trans-4-[methyl(7H-pyrrolo[2,3-d]pyrimidin-4-yl)amino]cyclohexyl}-methyl)sulfonyl]piperidin-4-yl}propan-1-ol]
19.4 | 587 | – | CN(c1ncnc2[nH]ccc12)[C@H]1CC[C@H](CS(=O)(=O)N2CCS(=O)(=O)CC2)CC1 [Example 126, N-(trans-4-{[(1,1-dioxidothiomorpholin-4-yl)sulfonyl]methyl}cyclo-hexyl)-N-methyl-7H-pyrrolo[2,3-d]pyrimidin-4-amine]
6.47 | 457 | – | C[C@H]1CCCN1S(=O)(=O)C[C@H]1CC[C@H](N(C)c2ncnc3[nH]ccc23)CC1 [Example 86, N-methyl-N-(trans-4-{[(2-methylpyrrolidin-1-yl)-sulfonyl]methyl}cyclohexyl)-7H-pyrrolo[2,3-d]-pyrimidin-4-amine]
11.7 | 491 | – | CN(c1ncnc2[nH]ccc12)[C@H]1CC[C@H](CS(=O)(=O)N2CCC(CS(=O)(=O)CC3CC3)CC2)CC1 [Example 49, N-(trans-4-{[(4-{[(cyclopropylmethyl)sulfonyl]-methyl}piperidin-1-yl)sulfonyl]-methyl}-cyclohexyl)-N-methyl-7H-pyrrolo[2,3-d]pyrimidin-4-amine]
